# Test results as given in the supplement of paper PMC3770661.
# Where a name gives a salt, the structure may show the parent alone. ± gives the uncertainty stated by the source.
# Tested on: HepG2 (L1.3 5'UTR promoter firefly luciferase reporter)
# Test: L1 promoter activity (FLuc/RLuc) relative to DMSO vehicle control (% of control); higher = stronger L1 promoter activation
# Procedure: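 HepG2 cells in 96-well plates were cotransfected with pGL4.11-L1.3 5'UTR (firefly luciferase driven by the human L1.3 5'UTR promoter) and pGL4.74 (HSV-TK Renilla luciferase internal control), then treated with compound for 6 or 24 h. FLuc/RLuc ratio was normalised to the DMSO vehicle control (% of control); concentrations where RLuc fell below 50% of control were excluded (N.D.). Mean of at least two independent experiments in duplicate or quadruplicate.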
# [1] = concentration (uM unless unit written): 2500, treatment time: 6 h
# [2] = concentration (uM unless unit written): 2500, treatment time: 24 h
# [3] = concentration (uM unless unit written): 5000, treatment time: 6 h
# [4] = concentration (uM unless unit written): 5000, treatment time: 24 h
# [5] = concentration (uM unless unit written): 50, treatment time: 6 h
# [6] = concentration (uM unless unit written): 50, treatment time: 24 h
# [7] = concentration (uM unless unit written): 100, treatment time: 6 h
# [8] = concentration (uM unless unit written): 100, treatment time: 24 h
# [9] = concentration (uM unless unit written): 500, treatment time: 6 h
# [10] = concentration (uM unless unit written): 500, treatment time: 24 h
# [11] = concentration (uM unless unit written): 250, treatment time: 6 h
# [12] = concentration (uM unless unit written): 250, treatment time: 24 h
# [13] = concentration (uM unless unit written): 1000, treatment time: 6 h
# [14] = concentration (uM unless unit written): 10, treatment time: 6 h
# [15] = concentration (uM unless unit written): 10, treatment time: 24 h
# [16] = concentration (uM unless unit written): 1, treatment time: 6 h
# [17] = concentration (uM unless unit written): 1, treatment time: 24 h
# [18] = concentration (uM unless unit written): 125, treatment time: 6 h
# [19] = concentration (uM unless unit written): 125, treatment time: 24 h
# [20] = concentration (uM unless unit written): 1000, treatment time: 24 h
# [21] = concentration (uM unless unit written): 5, treatment time: 6 h
# [22] = concentration (uM unless unit written): 5, treatment time: 24 h
compound,measurement,setting,value
COc1ccccc1OCC(O)CO (configuration not stated) [Guaiacol glyceryl ether],L1 promoter activity,"concentration (uM unless unit written): 1250, treatment time: 6 h",123 ± 7.7
same,L1 promoter activity,"concentration (uM unless unit written): 1250, treatment time: 24 h",99.7 ± 7.2
same,L1 promoter activity,[1],136 ± 19
same,L1 promoter activity,[2],112 ± 19
same,L1 promoter activity,[3],149 ± 13
same,L1 promoter activity,[4],145 ± 15
CC(=O)CC(c1ccccc1)c1c(O)c2ccccc2oc1=O (configuration not stated) [Warfarin],L1 promoter activity,"concentration (uM unless unit written): 25, treatment time: 6 h",98.9 ± 11
same,L1 promoter activity,"concentration (uM unless unit written): 25, treatment time: 24 h",85 ± 5.2
same,L1 promoter activity,[5],89.5 ± 12
same,L1 promoter activity,[6],85.8 ± 14
same,L1 promoter activity,[7],91.7 ± 11
same,L1 promoter activity,[8],74.2 ± 9.4
same,L1 promoter activity,[9],90.8 ± 25
same,L1 promoter activity,[10],64.1 ± 6.6
CN(C)CCN(Cc1cccs1)c1ccccn1 [Methapyrilene],L1 promoter activity,[11],97.7 ± 2.8
same,L1 promoter activity,[12],101 ± 25
same,L1 promoter activity,[9],86.6 ± 8.4
same,L1 promoter activity,[13],72.8 ± 12
CN(Cc1cnc2nc(N)nc(N)c2n1)c1ccc(C(=O)N[C@@H](CCC(=O)O)C(=O)O)cc1 [Methotrexate],L1 promoter activity,[14],86.8 ± 9.6
same,L1 promoter activity,[15],112 ± 36
same,L1 promoter activity,[7],93.4 ± 13
same,L1 promoter activity,[8],108 ± 48
same,L1 promoter activity,"concentration (uM unless unit written): 200, treatment time: 6 h",93.6 ± 12
same,L1 promoter activity,"concentration (uM unless unit written): 200, treatment time: 24 h",142 ± 41
CCOC(=O)C1=C(COCCN)NC(C)=C(C(=O)OC)C1c1ccccc1Cl (configuration not stated) [Amlodipine besylate],L1 promoter activity,"concentration (uM unless unit written): 0.5, treatment time: 6 h",93.6 ± 11
same,L1 promoter activity,"concentration (uM unless unit written): 0.5, treatment time: 24 h",105 ± 8.9
same,L1 promoter activity,[16],104 ± 10
same,L1 promoter activity,[17],101 ± 22
same,L1 promoter activity,"concentration (uM unless unit written): 2, treatment time: 6 h",95.7 ± 7.8
same,L1 promoter activity,"concentration (uM unless unit written): 2, treatment time: 24 h",107 ± 12
same,L1 promoter activity,[14],85.2 ± 8.2
CCCCc1nc(Cl)c(CO)n1Cc1ccc(-c2ccccc2-c2nnn[nH]2)cc1 [Losartan],L1 promoter activity,"concentration (uM unless unit written): 15.625, treatment time: 6 h",93.6 ± 6.2
same,L1 promoter activity,"concentration (uM unless unit written): 15.625, treatment time: 24 h",92.6 ± 10
same,L1 promoter activity,"concentration (uM unless unit written): 31.25, treatment time: 6 h",106 ± 7.8
same,L1 promoter activity,"concentration (uM unless unit written): 31.25, treatment time: 24 h",102 ± 10
same,L1 promoter activity,"concentration (uM unless unit written): 62.5, treatment time: 6 h",109 ± 8.7
same,L1 promoter activity,"concentration (uM unless unit written): 62.5, treatment time: 24 h",98.6 ± 11
same,L1 promoter activity,[18],101 ± 10
same,L1 promoter activity,[19],95.1 ± 7.4
O=C1NC(=S)NC(=O)C1C(=O)Nc1ccccc1 [Merbarone],L1 promoter activity,[16],112 ± 12
same,L1 promoter activity,[17],113 ± 13
same,L1 promoter activity,[14],140 ± 17
same,L1 promoter activity,[15],147 ± 17
same,L1 promoter activity,[5],171 ± 27
same,L1 promoter activity,[6],219 ± 30
same,L1 promoter activity,[7],182 ± 16
same,L1 promoter activity,[8],198 ± 32
CC(=O)Oc1ccccc1C(=O)O [Acetylsalicylic acid],L1 promoter activity,[16],103 ± 7.2
same,L1 promoter activity,[17],98.7 ± 9.5
same,L1 promoter activity,"concentration (uM unless unit written): 3, treatment time: 6 h",115 ± 11
same,L1 promoter activity,"concentration (uM unless unit written): 3, treatment time: 24 h",88.3 ± 11
same,L1 promoter activity,[14],107 ± 3.8
same,L1 promoter activity,[15],105 ± 9.7
same,L1 promoter activity,[5],106 ± 8.5
same,L1 promoter activity,[6],98.2 ± 29
same,L1 promoter activity,[7],123 ± 23
same,L1 promoter activity,[11],112 ± 13
same,L1 promoter activity,[12],105 ± 8.4
same,L1 promoter activity,[9],114 ± 14
same,L1 promoter activity,[10],86 ± 5.1
same,L1 promoter activity,[13],107 ± 12
same,L1 promoter activity,[20],91.3 ± 6
same,L1 promoter activity,"concentration (uM unless unit written): 2000, treatment time: 6 h",95.4 ± 8
same,L1 promoter activity,"concentration (uM unless unit written): 2000, treatment time: 24 h",67.7 ± 5.9
same,L1 promoter activity,"concentration (uM unless unit written): 3000, treatment time: 6 h",105 ± 4
same,L1 promoter activity,"concentration (uM unless unit written): 3000, treatment time: 24 h",53.3 ± 2.5
same,L1 promoter activity,[3],111 ± 15
same,L1 promoter activity,[4],40.8 ± 1.2
CC[C@H](C)C(=O)O[C@H]1C[C@H](O)C=C2C=C[C@H](C)[C@H](CC[C@@H](O)C[C@@H](O)CC(=O)O)[C@H]21 [Pravastatin],L1 promoter activity,[1],130 ± 8.2
same,L1 promoter activity,[2],102 ± 7.9
CC(C)n1c(/C=C/C(O)CC(O)CC(=O)O)c(-c2ccc(F)cc2)c2ccccc21 (configuration not stated) [Fluvastatin],L1 promoter activity,[21],126 ± 35
same,L1 promoter activity,[22],134 ± 32
same,L1 promoter activity,[14],111 ± 32
same,L1 promoter activity,[15],102 ± 23
same,L1 promoter activity,"concentration (uM unless unit written): 20, treatment time: 6 h",99.4 ± 19
same,L1 promoter activity,"concentration (uM unless unit written): 20, treatment time: 24 h",109 ± 25
CCCCCC[C@H]1C(=O)O[C@H](C)[C@H](NC(=O)c2cccc(NC=O)c2O)C(=O)O[C@@H](C)[C@@H]1OC(=O)CC(C)C [Antimycin A],L1 promoter activity,"concentration (uM unless unit written): 0.075, treatment time: 6 h",101 ± 17
same,L1 promoter activity,"concentration (uM unless unit written): 0.075, treatment time: 24 h",115 ± 21
same,L1 promoter activity,[16],101 ± 5.7
same,L1 promoter activity,[17],109 ± 8.4
Nc1ccn([C@@H]2O[C@H](CO)[C@@H](O)[C@@H]2O)c(=O)n1 [Cytosine arabinoside],L1 promoter activity,[18],101 ± 8
same,L1 promoter activity,[19],106 ± 3.7
same,L1 promoter activity,[11],95.2 ± 5.5
same,L1 promoter activity,[12],105 ± 4.4
same,L1 promoter activity,[9],102 ± 8.1
same,L1 promoter activity,[10],103 ± 6.2
Clc1ccc(C(c2ccccc2Cl)C(Cl)Cl)cc1 (configuration not stated) [o.p'-Dichlorodiphenyldichloroethane],L1 promoter activity,[5],97.3 ± 5
same,L1 promoter activity,[6],108 ± 5.8
same,L1 promoter activity,[7],77.5 ± 11
CC(C)(C(=O)c1cccnc1)c1cccnc1 [Metyrapone],L1 promoter activity,[18],121 ± 7.4
same,L1 promoter activity,[19],111 ± 11
same,L1 promoter activity,[11],142 ± 18
same,L1 promoter activity,[12],121 ± 11
same,L1 promoter activity,[9],127 ± 3.5
same,L1 promoter activity,[10],135 ± 14
CCOC(=O)CC(O)C(=O)OCC (configuration not stated) [Diethyl malate],L1 promoter activity,"concentration (uM unless unit written): 375, treatment time: 6 h",127 ± 13
same,L1 promoter activity,"concentration (uM unless unit written): 750, treatment time: 6 h",159 ± 18
CC[C@]1(O)C[C@@H]2CN(CCc3c([nH]c4ccccc34)[C@@](C(=O)OC)(c3cc4c(cc3OC)N(C)[C@H]3[C@@](O)(C(=O)OC)[C@H](OC(C)=O)[C@]5(CC)C=CCN6CC[C@]43[C@@H]65)C2)C1 [Vinblastine],L1 promoter activity,"concentration (uM unless unit written): 0.1, treatment time: 6 h",92.8 ± 15
same,L1 promoter activity,"concentration (uM unless unit written): 0.1, treatment time: 24 h",181 ± 31
same,L1 promoter activity,[16],92.1 ± 23
same,L1 promoter activity,[17],161 ± 30
same,L1 promoter activity,[21],94 ± 12
same,L1 promoter activity,[22],207 ± 24
CC(C)(Oc1ccc(CCNC(=O)c2ccc(Cl)cc2)cc1)C(=O)O [Bezafibrate],L1 promoter activity,[14],115 ± 13
same,L1 promoter activity,[15],105 ± 4.7
same,L1 promoter activity,[7],140 ± 11
same,L1 promoter activity,[8],133 ± 13
same,L1 promoter activity,[13],174 ± 14
NS(=O)(=O)c1cc(C(=O)O)c(NCc2ccco2)cc1Cl [Furosemide],L1 promoter activity,[7],104 ± 28
same,L1 promoter activity,[8],103 ± 24
same,L1 promoter activity,[11],97.3 ± 11
same,L1 promoter activity,[12],96.2 ± 8.4
same,L1 promoter activity,[9],96.9 ± 5.2
same,L1 promoter activity,[10],91.2 ± 6.5
same,L1 promoter activity,[13],89.1 ± 16
same,L1 promoter activity,[20],60.4 ± 2.4
CC(CN1c2ccccc2Sc2ccccc21)N(C)C (configuration not stated) [Promethazine hydrochloride],L1 promoter activity,[5],73.9 ± 13
